From patent publication US20260258050A1, “IMMUNOMODULATOR” (HITGEN INC., priority 2023, published 2026)

The molecules below were run against T1, Human IL-17A (Homo sapiens, UniProt Q16552) (assay: IL-17A enzyme-linked immunosorbent assay (competitive ELISA, IL-17A/IL-17Ra receptor-ligand binding)). Conditions: human IL-17A coated plate, human IL-17Ra, read-out: IC50, inhibitory activity of compounds on human IL-17A.
T1 sequence (Q16552 20-155 limits assumed): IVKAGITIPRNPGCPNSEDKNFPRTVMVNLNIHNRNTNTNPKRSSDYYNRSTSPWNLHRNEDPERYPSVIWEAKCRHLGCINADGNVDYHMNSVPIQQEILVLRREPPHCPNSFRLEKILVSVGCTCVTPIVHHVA
Parameters: purchased Sino Biological Inc. 12047-H07B
Description: Experimental Example 1 IL-17A Enzyme-Linked Immunosorbent Assay (ELISA)
The inhibitory effects of human IL-17A inhibitors on receptor-ligand binding were quantitatively determined by a competitive enzyme-linked immunosorbent assay (ELISA). The ELISA was performed through the following steps.
Human IL-17A (Sino Biological Inc., Cat #12047-H07B) was diluted with coating buffer (50 mM phosphate-buffered saline (PBS), pH 7.4) to give an IL-17A concentration of 0.2 μg/ml. 100 μL of the resulting solution was added to each well of a 96-well plate, and the plate was incubated at 37° C. for 30 min. In a blank group, 100 100 μL of the coating buffer was added instead of the IL-17A solution.
The plate was washed four times with 10 mM phosphate-buffered saline containing 0.05% Tween-20 (PBST, pH 7.4). 200 μL of PBST was used per well for each wash. After the final wash, the plate was tapped dry on absorbent paper.
Fresh 5% (w/v) skim milk solution was prepared before the experiment. For example, 5 g of skim milk powder (Bio-Rad, 170-6404) was completely dissolved in 100 mL of 10 mM PBST. 200 μL of the 5% (w/v) skim milk solution was added to each well, and the plate was incubated on a shaker at 25° C. for 30 min.
(S4) Preparation of 100× to-be-Tested Compound Solutions
During step (S3), the to-be-tested compound solutions were prepared, respectively. Each powdered compound was dissolved in dimethyl sulfoxide (DMSO) to reach a storage concentration of 10 mM. The to-be-tested compound solutions were then serially diluted four-fold with DMSO to obtain nine storage concentrations ranging from […].
(S6) Pre-incubation of IL-17A with to-be-tested compound solutions
89 μL of PBST and 1 μL of each of the to-be-tested compound solutions were added to each well and mixed. The plate was pre-incubated at 25° C. for 10 min. In the blank group and the control group, 1 μL of DMSO was added instead of the to-be-tested compound solutions.
(S7) Incubation with Human Interleukin-17 Receptor a (IL-17Ra)
10 μL of 16 nM human IL-17Ra (Sino Biological Inc., Cat #10895-H03H) was added, followed by incubation on a shaker at 25° C. for 30 min. The receptor solution was prepared in 10 mM PBST.
(S9) Incubation with Horseradish Peroxidase-Conjugated Antibody
100 μL of mouse anti-Fc tag horseradish peroxidase (HRP)-conjugated antibody (Sino Biological Inc., Cat #10702-MM01T-H) was added to each well. The plate was incubated on a shaker at 25° C. for 30 min. The antibody was diluted with 5% (w/v) skim milk solution at 1:5,000 (v/v).
100 μL of 3,3′,5,5′-tetramethylbenzidine (TMB) substrate solution (BD, Cat #555214) was added to each well. Substrate A and substrate B were freshly mixed at a volume ratio of 1:1 before use. The plate was incubated in the dark at 25° C. for 5-15 min.
(S12) Termination and Detection
The color reaction was terminated by addition of 2.5 M hydrochloric acid (HCl). Absorbance was measured at 450 nm using a BMG PHERStar microplate reader.
(S13) Calculation of Half-Maximal Inhibitory Concentration (IC50)
The relative percent residual activity at each compound concentration was calculated according to Equation 1. The IC50 value of each test compound was then calculated in GraphPad 6 using the equation for log(inhibitor) versus normalized response with variable slope, as shown in Equation 2.
relative percent residual activity (%)=[(absorbance of sample−absorbance of blank group)/(absorbance of control group−absorbance of blank group)]%. Equation 1: […]
The compounds prepared in the above examples were tested for IL-17A inhibitory activity according to the above method.

Question: For `Cc1[nH]nc2c1-c1cc(F)c(NC(=O)[C@@H](NC(=O)c3ccnn3C(CF)CF)C(C3CC3)C3CC3)cc1COCC2` [compound 95], which IC50 is on record?
Answer: ≤ 50 nM

Question: How did the IC50 turn out when `Cc1[nH]nc2c1-c1cc(F)c(NC(=O)[C@@H](NC(=O)c3ccnn3CCOC(F)F)C(C3CC3)C3CC3)cc1COCC2` [compound 107] was run?
Answer: ≤ 50 nM

Question: For `Cc1[nH]nc2c1-c1cc(F)c(NC(=O)[C@@H](NC(=O)c3ccnc(CC(F)(F)F)c3)C(C3CC3)C3CC3)cc1COCC2` [compound 109], which IC50 is on record?
Answer: 50 to 150 nM

Question: For `Cc1[nH]nc2c1-c1cc(F)c(NC(=O)[C@@H](NC(=O)c3ccnn3C3CSC3)C(C3CC3)C3CC3)cc1COCC2` [compound 112], which IC50 is on record?
Answer: ≤ 50 nM

Question: How did the IC50 turn out when `COC(=O)N[C@H](C(=O)Nc1cc2c(cc1F)-c1c(n[nH]c1C)CCOC2)C(C1CC1)C1CC1` [compound 121] was run?
Answer: 50 to 150 nM

Question: `Cc1[nH]nc2c1-c1cc(F)c(NC(=O)[C@@H](NC(=O)C3(F)CC3)C(C3CC3)C3CC3)cc1COCC2` [compound 122] was tested. Which IC50 did it give?
Answer: 50 to 150 nM

Question: Which IC50 does the source give for `Cc1[nH]nc2c1-c1cnc(NC(=O)[C@@H](NC(=O)c3ccnn3C(C)C)C(C3CC3)C3CC3)c(F)c1COCC2` [compound 128] here?
Answer: ≤ 50 nM

Question: Which IC50 does the source give for `Cc1[nH]nc2c1-c1cc(F)c(NC(=O)[C@@H](NC(=O)c3ccnn3C(C)C)C(C3CC3)C3CC3)cc1C/C=C\C2` [compound 129] here?
Answer: ≤ 50 nM

Question: How did the IC50 turn out when `Cc1[nH]nc2c1-c1cc(F)c(NC(=O)[C@@H](NC(=O)c3ccnn3C3CC3)C(C3CC3)C3CC3)cc1CN(C)C(=O)C2` [compound 135] was run?
Answer: ≤ 50 nM

Question: How did the IC50 turn out when `COCCN1Cc2cc(NC(=O)[C@@H](NC(=O)c3ccnn3[C@@H](C)CO)C(C3CC3)C3CC3)c(F)cc2-c2c(n[nH]c2C)CC1=O` [compound 140] was run?
Answer: ≤ 50 nM

Question: Which IC50 does the source give for `COCCN1Cc2cc(NC(=O)[C@@H](NC(=O)c3nonc3C)C(C3CC3)C3CC3)c(F)cc2-c2c(n[nH]c2C)CC1=O` [compound 141] here?
Answer: ≤ 50 nM

Question: Which IC50 does the source give for `CCn1nccc1C(=O)N[C@H](C(=O)Nc1cc2c(cc1F)-c1c(n[nH]c1C)CCN(C)C2)C(C1CC1)C1CC1` [compound 155] here?
Answer: 50 to 150 nM

Question: For `Cc1[nH]nc2c1-c1cc(F)c(NC(=O)[C@@H](NC(=O)c3ccnn3C(C)C)C(C3CC3)C3CC3)cc1CN(C1CCC1)CC2` [compound 177], which IC50 is on record?
Answer: ≤ 50 nM

Question: Which IC50 does the source give for `Cc1[nH]nc2c1-c1cc(F)c(NC(=O)[C@@H](NC(=O)c3ccnn3C(C)C)C(C3CC3)C3CC3)cc1CN(CC#N)CC2` [compound 179] here?
Answer: ≤ 50 nM

Question: For `Cc1[nH]nc2c1-c1cnc(NC(=O)[C@@H](NC(=O)c3ccnn3C(C)C)C(C3CC3)C3CC3)cc1CN(C1CC(F)(F)C1)CC2` [compound 203], which IC50 is on record?
Answer: ≤ 50 nM

Question: With `Cc1[nH]nc2c1-c1cnc(NC(=O)[C@@H](NC(=O)c3ccnn3C(C)C)C(C3CC3)C3CC3)cc1CN(C(C)(C)C(F)(F)F)C(=O)C2` [compound 206] as the molecule, how does the IC50 read?
Answer: ≤ 50 nM

Question: How did the IC50 turn out when `Cc1[nH]nc2c1-c1cc(F)c(NC(=O)[C@@H](NC(=O)c3ccnn3C(C)C)C(C3CC3)C3CC3)cc1CN(C(C)(C)C(F)(F)F)C(=O)C2` [compound 207] was run?
Answer: ≤ 50 nM

Question: For `Cc1[nH]nc2c1-c1cnc(NC(=O)[C@@H](NC(=O)c3ccnn3C(C)C)C(C3CC3)C3CC3)cc1CN(C1(C(F)(F)F)CC1)C(=O)C2` [compound 208], which IC50 is on record?
Answer: ≤ 50 nM

Question: For `Cc1[nH]nc2c1-c1cc(F)c(NC(=O)[C@@H](NC(=O)c3ccnn3C(C)C)C(C3CC3)C3CC3)cc1CN(C1(C(F)(F)F)CC1)C(=O)C2` [compound 209], which IC50 is on record?
Answer: ≤ 50 nM

Question: With `Cc1[nH]nc2c1-c1cnc(NC(=O)[C@@H](NC(=O)c3ccnn3C(C)C)C(C3CC3)C3CC3)cc1CN(C(C)(C)C(F)(F)F)CC2` [compound 210] as the molecule, how does the IC50 read?
Answer: ≤ 50 nM

Question: `Cc1[nH]nc2c1-c1cc(F)c(NC(=O)[C@@H](NC(=O)c3ccnn3C(C)C)C(C3CC3)C3CC3)cc1CN(C(C)(C)C(F)(F)F)CC2` [compound 211] was tested. Which IC50 did it give?
Answer: ≤ 50 nM

Question: How did the IC50 turn out when `Cc1[nH]nc2c1-c1cnc(NC(=O)[C@@H](NC(=O)c3ccnn3C(C)C)C(C3CC3)C3CC3)cc1CN(C1(C(F)(F)F)CC1)CC2` [compound 212] was run?
Answer: ≤ 50 nM

Question: `Cc1[nH]nc2c1-c1cc(F)c(NC(=O)[C@@H](NC(=O)c3ccnn3C(C)C)C(C3CC3)C3CC3)cc1CN(C1(C(F)(F)F)CC1)CC2` [compound 213] was tested. Which IC50 did it give?
Answer: ≤ 50 nM

Question: `Cc1[nH]nc2c1-c1cnc(NC(=O)[C@@H](NC(=O)c3cnnn3C(C)C)C(C3CC3)C3CC3)cc1CN(C1CC1)CC2` [compound 220] was tested. Which IC50 did it give?
Answer: ≤ 50 nM

Question: `Cc1[nH]nc2c1-c1cnc(NC(=O)[C@@H](NC(=O)/C(F)=C\C3CC3)C(C3CC3)C3CC3)cc1CN(C1CC1)CC2` [compound 221] was tested. Which IC50 did it give?
Answer: ≤ 50 nM

Question: For `Cc1[nH]nc2c1-c1cnc(NC(=O)[C@@H](NC(=O)/C(F)=C\C(C)C)C(C3CC3)C3CC3)cc1CN(C1CC1)CC2` [compound 222], which IC50 is on record?
Answer: ≤ 50 nM

Question: Which IC50 does the source give for `CC(C)=C(F)C(=O)N[C@H](C(=O)Nc1cc2c(cn1)-c1c(n[nH]c1C)CCN(C1CC1)C2)C(C1CC1)C1CC1` [compound 223] here?
Answer: ≤ 50 nM

Question: With `C=C(F)C(=O)N[C@H](C(=O)Nc1cc2c(cn1)-c1c(n[nH]c1C)CCN(C1CC1)C2)C(C1CC1)C1CC1` [compound 224] as the molecule, how does the IC50 read?
Answer: ≤ 50 nM

Question: For `Cc1[nH]nc2c1-c1cc(F)c(NC(=O)[C@@H](NC(=O)c3cccc(-c4ccn[nH]4)c3)C(C3CC3)C3CC3)cc1COCC2` [compound 228], which IC50 is on record?
Answer: ≤ 50 nM

Question: `Cc1[nH]nc2c1-c1cc(F)c(NC(=O)[C@@H](NC(=O)c3cnnn3C(C)C)C(C3CC3)C3CC3)cc1COCC2` [compound 231] was tested. Which IC50 did it give?
Answer: ≤ 50 nM

Question: With `Cc1[nH]nc2c1-c1cnc(NC(=O)[C@@H](NC(=O)c3cnnn3C(C)C)C(C3CC3)C3CC3)cc1COCC2` [compound 243] as the molecule, how does the IC50 read?
Answer: ≤ 50 nM

Question: `Cc1[nH]nc2c1-c1cnc(NC(=O)[C@@H](NC(=O)OC3CCC3)C(C3CC3)C3CC3)cc1COCC2` [compound 247] was tested. Which IC50 did it give?
Answer: 50 to 150 nM

What follows are molecules tested against T1, Human IL-17A (assay: Inhibition of human IL-17A protein-induced GROα/CXCL1 production in HT-29 cells). Conditions: 30 ng/mL human IL-17A protein, 48 h, GROα in supernatant by ELISA kit, read-out: Inhibitory IC50 of compounds on HT-29 cell GROα/CXCL1.
Assay type: cell-based
Parameters: purchased R&D 317-ILB; host or cells: added exogenously to HT-29 cells
Description: Experiment Example 3 Inhibition of Human IL-17A Protein-Induced GROα/CXCL1 Production in HT-29 Cells by Compounds
This assay was conducted to evaluate the ability of the compounds to inhibit human IL-17A protein-induced production of the chemokine growth-regulated oncogene alpha/C-X-C motif chemokine ligand 1 (GROα/CXCL1) in HT-29 cells.
Human colorectal adenocarcinoma epithelial HT-29 cells (Chengdu Zhongyuan Gongchuang Technology Co., Ltd.) were seeded into a 96-well plate at a density of 5×10^4 cells per well and were cultured overnight in an incubator at 37° C.
30 ng/mL of human IL-17A protein (R&D, #317-ILB) was mixed with gradient concentrations of the IL-17A small-molecule inhibitor, or with […] of a positive control IL-17A antibody (R&D, #AF-317-NA). These mixtures were incubated at 37° C. for 1 h and were then added to the plate. The mixtures were co-incubated with the HT-29 cells at 37° C. for 48 h. Thereafter, the level of GROα in the cell culture supernatant was determined using a GROα ELISA kit (Cisbio, #62HCXC1PEG).
The inhibitory activity of each compound was expressed as the half-maximal inhibitory concentration (IC50) for inhibition of GROα/CXCL1 production in HT-29 cells.

Question: `Cc1[nH]nc2c1-c1cc(F)c(NC(=O)[C@@H](NC(=O)c3ccnn3C(C)C)C(C3CC3)C3CC3)cc1C(=O)NC(C)C2` (single isomer, unassigned) [compound 187a] was tested. Which IC50 did it give?
Answer: ≤ 100 nM

Question: For `Cc1[nH]nc2c1-c1cc(F)c(NC(=O)[C@@H](NC(=O)c3ccnn3C(C)C)C(C3CC3)C3CC3)cc1C(=O)NC(C)C2` (single isomer, unassigned) [compound 187b], which IC50 is on record?
Answer: ≤ 100 nM

Question: How did the IC50 turn out when `Cc1c2c(nn1COCC[Si](C)(C)C)CC(=O)N(Cc1ccccc1)Cc1cc(N)c(F)cc1-2` [compound 183] was run?
Answer: 100 to 500 nM
